Values quoted from earlier work, collected in patent US9445940B2, “System and method for inducing hypothermia with control and determination of catheter pressure” (Zoll Circulation, Inc., priority 2003, dated 2016).

Test system: shivering threshold
Conditions: stated as believed, no experiment by the applicant

CCOC(=O)C1(c2ccccc2)CCN(C)CC1 [Meperidine]
decrease of shivering threshold relative to vasoconstriction threshold: twice as much as the vasoconstriction threshold
